Key:
[1] = test system: AMPK phosphorylation through AdipoR1 in ORS cells; test: Western blot p-AMPK in AdipoR1 siRNA-transfected ORS cells; type: cell-based, human
Source text: Following the confirmation of the molecular interaction between AdipoR1 and P5, we evaluated the activation of the intracellular signaling pathway by P5. We investigated whether APN treatment on ORS and DP cells could activate AMPK or ERK signaling pathways, which are previously known to be downstream effectors of AdipoR1 (Mao et al, [2006]; Deepa & Dong, [2009]; Shibata et al, [2012]). […] Next, for determination of whether both P5 and APN mediates the phosphorylation of AMPK through AdipoR1 in ORS and DP cells, the cells were transfected with AdipoR1 siRNA (Appendix Fig S1). […] Collectively, P5 activates AMPK signaling pathway through AdipoR1 in ORS and DP cells in vitro.
All transfections were performed using Lipofectamine 2000 following the manufacturer’s instructions (#11668019; Thermo Fisher). Human DP and ORS cells were cultured without antibiotics until reaching 50% confluency. AdipoR1 or scrambled siRNA (Bioneer) was used. The culture medium was changed 6 h after transfection, and the cells were incubated for another 24 h before subsequent analyses.
Human ORS and DP cells or skin tissue were lysed (RIPA lysis buffer; #20‐188; Merck Millipore). […] Antibody‐antigen complexes detected by enhanced chemiluminescent substrate (Thermo Fisher) were captured and quantified by Amersham imager 680 systems (GE Healthcare).

Adipor1−/− mice = test: Mouse hair cycle modulation, histology and anagen induction score, Adipor1−/− mice; type: in vivo
Source text: To test whether the effect of P5 is mediated through AdipoR1 in vivo, we used Adipor1 ^−/− mice (Yamauchi et al, [2007]; Okada‐Iwabu et al, [2013]). […] Consistently, the anagen induction effects of P5 was abolished in the Adipor1 ^−/− mice (Fig 4I and J), in contrast to in WT mouse (Appendix Fig S2). […] Taken together, topical P5 treatment can accelerate hair growth through AdipoR1 in vivo.
Paraffin‐embedded mouse cutaneous back tissue was sectioned (4 μm thickness) and stained with hematoxylin and eosin. […] IF intensity was observed and recorded with a Nikon Eclipse Ni‐E fluorescence microscope (Nikon).
For the hair cycle modulation experiment, Adipoq ^−/− (stock #008195; JAX) (Ma et al, [2002]), Adipor1 ^−/− (Yamauchi et al, [2007]; Okada‐Iwabu et al, [2013]), or C57BL/6 (KOATECH) female mice was used (Müller‐Röver et al, [2001]). […] The mouse hair growth score (a value from 0 to 100 based on the skin pigmentation and hair shaft density) was monitored and documented at designated days with the experimenters being blind to the conditions, following a previous study (Chai et al, [2019]). […] On day 35, we obtained dorsal cutaneous tissue for histological analysis: anagen induction scores (calculated using an assigned arbitrary score; telogen = 1, anagen I–VI = 2–7) (Müller‐Röver et al, [2001]). […]

GLYYF [P5, GST-fused (GST-P5) in pulldown assays]
p-AMPK intensity after AdipoR1 siRNA transfection, ORS cells [1]: intensity was reduced | Histology / anagen induction score vs vehicle (Adipor1−/− mice): anagen HF was not found
